In US20250026745A1 (Bluejay Therapeutics, Inc., priority 2023, published 2025):
Where two headings read alike, the source gives them in different places.

Key:
[1] = cited from earlier work
[2] = molecular target: HEK293 cells expressing 17β-HSD13 (Homo sapiens (Human), UniProt Q7Z5P4); assay: 17β-HSD13 cell-based assay (β-estradiol conversion, LC-MS/MS)
Protocol: HEK293 cells expressing 17β-HSD13 either stably or transiently were incubated with compounds for 60 min at 37° C. in a humidified incubator. After this first incubation step, β-estradiol was added to each well of the microtiter plate and incubated for 3 h at 37° C. in the humidified incubator. After treatment with β-Estradiol, 50 μL of supernatant was transferred to a 96-V plate containing 100 μL acetonitrile and centrifuged at 3900 rpm for 45 min. Finally, 50 μL of supernatant were taken for LC-MS/MS analysis. The chromatography part was run on a Xbridge 30 mm×2.1 mm column (Waters), at 40 degrees Celsius and a flow rate of 0.8 mL/min for 5 min, while the MS was done on a Q Exactive Orbitrap (Fisher Scientific) in Target SIM mode and negative polarity with a spray voltage of 3.5 kV. EC50 values were determined with GraphPad Prism®, where log-transformed concentration values and the inhibition data were fitted to a four-parameter logistic equation. Y=Bottom+(Top−Bottom)/(1+10^((Log EC50−X)*Hill Slope)). The original, % control, or % inhibition data are represented by Y along with their minimal (Bottom) and maximal (Top) values. The inhibitor concentration is represented by X, EC50 is the concentration at 50% maximal value, and Hill Slope is the slope factor.

[3] = molecular target: recombinant 17β-HSD13 protein (Homo sapiens (Human), UniProt Q7Z5P4); assay: 17β-HSD13 biochemical assay (NAD+/NADH Glo chemiluminescence); conditions: 17β-HSD13 50 nM, NAD+ 10 mM, β-estradiol 20 μM, 2 hours room temperature
recombinant 17β-HSD13 protein, sequence (Q7Z5P4 20-300): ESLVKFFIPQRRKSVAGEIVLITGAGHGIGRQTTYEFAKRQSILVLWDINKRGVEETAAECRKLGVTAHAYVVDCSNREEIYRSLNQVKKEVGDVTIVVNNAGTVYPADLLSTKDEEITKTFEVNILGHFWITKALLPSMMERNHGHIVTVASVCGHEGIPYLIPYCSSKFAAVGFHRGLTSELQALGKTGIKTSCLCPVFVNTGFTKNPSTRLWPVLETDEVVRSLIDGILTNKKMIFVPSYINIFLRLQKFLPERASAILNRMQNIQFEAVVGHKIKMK
In short: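 Compounds preincubated 1 h at room temperature with 50 nM enzyme and 10 mM NAD+ (final) in 200 mM Tris pH 7.5, 0.01% Triton X-100, 0.02% BSA. Reaction started with 20 μM β-estradiol and run 2 hours at room temperature; NADH formation detected by NAD+/NADH-Glo chemiluminescence. IC50 from four-parameter logistic fit.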

[4] = Recovery of glucuronide Compound I-51 spiked into mouse liver tissue homogenate (30% ACN in water with 2% FA); type: in vitro ADME; conditions: parent Compound I-16 measured in I-51-spiked sample
Text: Compound I-51, a glucuronide of compound I-16, was used to develop methodology to ensure the glucuronide metabolite of the phenol could be stabilized in liver tissue to glucuronidase and other enzymatic cleavage in order to determine accurate levels of parent:glucuronide in the liver tissue. A known amount of Compound I-51 was spiked into a gram of mouse liver tissue where 2% formic acid (FA) was used with 30% acetonitrile (ACN) in water to stop all enzymatic glucuronidase activity.
Comparison of Treatment on ‘30% ACN in Water with 2% FA’ Homogenate Buffer for Compound I-51:
1). Prepared the homogenate buffer ‘30% ACN in water with 2% FA’ (including […] Compound 1-51), then homogenized with the liver tissue together. Due to the ratio of 1:9 (1 g tissue with 9 mL buffer), the final concentration was 900 ng/mL.
2). An aliquot of 20 μL sample were taken for analysis. Compound I-51 was Added after Homogenate:
1). The liver tissue was homogenized with the buffer ‘30% ACN in water with 2% FA’, then 2 μL 18 µg/mL Compound I-51 was spiked in 38 μL liver homogenate, the final concentration was 900 ng/mL. 2). An aliquot of 20 μL sample were taken for analysis. […]
The amount of parent was measured under these conditions Compound I-16 after generating a standard curve for Compound I-16.

[5] = HEK293 cells stably expressing 17β-HSD13 (footnote b), read-out: EC50, nM Stable
[6] = HEK293 cells transiently expressing 17β-HSD13 (footnote a), read-out: EC50, nM Transient

HEK293 cells expressing 17β-HSD13, sequence (Q7Z5P4 20-300): as above

SMILES: CCn1c(=O)c(C)cn(Cc2ccc(-c3ccc(F)c(O)c3F)s2)c1=O [BI-3231]
- glucuronidation / in vivo clearance [1]: prone to rapid glucuronidation on the phenol moiety leading to fast in vivo clearance

SMILES: C[C@@H](c1ccccc1)N1C(=O)N(Cc2nnc(-c3ccc(F)c(O)c3F)s2)C2(CC2)C1=O [Compound I-83, (S)-4-((5-(2,4-difluoro-3-hydroxyphenyl)-1,3,4-thiadiazol-2-yl)methyl)-6-(1-phenylethyl)-4,6-diazaspiro[2.4]heptane-5,7-dione]
- EC50 [2, 5]: 10.4 nM
- IC50 [3]: 2 ± 0.588 nM

SMILES: O=C1N(Cc2nnc(-c3ccc(F)c(O)c3F)s2)C2(CC2)C(=O)N1C1(c2ccccc2)CC1 [Compound I-86, 4-((5-(2,4-difluoro-3-hydroxyphenyl)-1,3,4-thiadiazol-2-yl)methyl)-6-(1-phenylcyclopropyl)-4,6-diazaspiro[2.4]heptane-5,7-dione]
- EC50 [2, 5]: 4.74 nM
- IC50 [3]: 2.5 nM

SMILES: O=C1N(CC(F)(F)F)C(=O)C2(CC2)N1Cc1nnc(-c2ccc(F)c(O)c2Cl)s1 [Compound I-16, 4-((5-(2-chloro-4-fluoro-3-hydroxyphenyl)-1,3,4-thiadiazol-2-yl)methyl)-6-(2,2,2-trifluoroethyl)-4,6-diazaspiro[2.4]heptane-5,7-dione]
- EC50 [2, 5]: 37.1 nM
- EC50 [2, 6]: 107 nM
- Calculated Concentration (ng/mL) of parent ([4]; after homogenate): 5.237 ng/mL
- Calculated Concentration (ng/mL) of parent ([4]; before homogenate): 5.618 ng/mL
- IC50 [3]: 12.9 ± 2.43 nM

SMILES: O=C1N(CC2(C(F)(F)F)CC2)C(=O)C2(CC2)N1Cc1nnc(-c2ccc(F)c(O)c2Cl)s1 [Compound I-26, 4-((5-(2-chloro-4-fluoro-3-hydroxyphenyl)-1,3,4-thiadiazol-2-yl)methyl)-6-((1-(trifluoromethyl)cyclopropyl)methyl)-4,6-diazaspiro[2.4]heptane-5,7-dione]
- EC50 [2, 5]: 107 nM
- IC50 [3]: 18.7 ± 2.67 nM

SMILES: Cc1c(-c2nnc(CN3C(=O)N([C@@H](c4ccccc4)C(F)(F)F)C(=O)C34CC4)s2)ccc(F)c1O [Compound I-91, (S)-4-((5-(4-fluoro-3-hydroxy-2-methylphenyl)-1,3,4-thiadiazol-2-yl)methyl)-6-(2,2,2-trifluoro-1-phenylethyl)-4,6-diazaspiro[2.4]heptane-5,7-dione]
- EC50 [2, 5]: 108 nM
- IC50 [3]: 4 nM

SMILES: O=C1N(Cc2ccccc2)C(=O)C2(CC2)N1Cc1nnc(-c2cc(C(F)(F)F)c(F)c(O)c2F)s1 [Compound I-57, 6-benzyl-4-((5-(2,4-difluoro-3-hydroxy-5-(trifluoromethyl)phenyl)-1,3,4-thiadiazol-2-yl)methyl)-4,6-diazaspiro[2.4]heptane-5,7-dione]
- EC50 [2, 5]: 52.7 nM
- IC50 [3]: 2.46 nM

SMILES: O=C1N(C2CCC2)C(=O)C2(CC2)N1Cc1nnc(-c2ccc(F)c(O)c2F)s1 [Compound I-30, 6-cyclobutyl-4-((5-(2,4-difluoro-3-hydroxyphenyl)-1,3,4-thiadiazol-2-yl)methyl)-4,6-diazaspiro[2.4]heptane-5,7-dione]
- EC50 [2, 5]: 35.9 nM
- IC50 [3]: 7.08 nM

SMILES: CC(C)N1C(=O)N(Cc2nnc(-c3ccc(F)c(O)c3F)s2)C2(CC2)C1=O [Compound I-5, 4-((5-(2,4-difluoro-3-hydroxyphenyl)-1,3,4-thiadiazol-2-yl)methyl)-6-isopropyl-4,6-diazaspiro[2.4]heptane-5,7-dione]
- EC50 [2, 6]: 42.2 nM
- IC50 [3]: 8.99 ± 0.322 nM

SMILES: O=C1N(C(c2ccc(F)cc2F)C(F)(F)F)C(=O)C2(CC2)N1Cc1nnc(-c2ccc(F)c(O)c2Cl)s1 (centres unmarked) [Compound I-54, 4-[[5-(2-chloro-4-fluoro-3-hydroxy-phenyl)-1,3,4-thiadiazol-2-yl]methyl]-6-[1-(2,4-difluorophenyl)-2,2,2-trifluoro-ethyl]-4,6-diazaspiro[2.4]heptane-5,7-dione]
- EC50 [2, 5]: 10.7 nM
- IC50 [3]: 1.53 nM

SMILES: O=C1N([C@@H](c2ccc(-c3ccc(F)cc3)cc2F)C(F)(F)F)C(=O)C2(CC2)N1Cc1nnc(-c2ccc(F)c(O)c2F)s1 [Compound I-97, (S)-4-((5-(2,4-difluoro-3-hydroxyphenyl)-1,3,4-thiadiazol-2-yl)methyl)-6-(1-(3,4′-difluoro-[1,1′-biphenyl]-4-yl)-2,2,2-trifluoroethyl)-4,6-diazaspiro[2.4]heptane-5,7-dione]
- EC50 [2, 5]: 4.66 nM
- IC50 [3]: 0.79 nM

SMILES: O=C1N(CC(F)(F)F)C(=O)C2(CC2)N1Cc1nnc(-c2ccc(F)c(O)c2F)s1 [Compound I-15, 4-((5-(2,4-difluoro-3-hydroxyphenyl)-1,3,4-thiadiazol-2-yl)methyl)-6-(2,2,2-trifluoroethyl)-4,6-diazaspiro[2.4]heptane-5,7-dione]
- EC50 [2, 5]: 40.9 ± 25 nM
- IC50 [3]: 8.07 ± 1.77 nM
